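Tested at 5 concentrations; 48 h exposure; 96-well plates; endpoints linearly interpolated, else capped at highest concentration. GI50 is the concentration that inhibits growth by half. TGI denotes the concentration required for complete inhibition of growth.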
Tests used:
Experiment in all cases: NCI tumour cell line growth inhibition, 48 h
[1] = test system: CAKI-1 renal
[2] = test system: DLD-1 colon
[3] = test system: DMS 273 small cell lung
[4] = test system: HOP-92 NSCLC
[5] = test system: SNB-75 CNS
[6] = test system: SNB-78 CNS
[7] = test system: TK-10 renal
[8] = test system: DU-145 prostate
[9] = test system: EKVX NSCLC
[10] = test system: HS 578T breast
[11] = test system: NCI-H226 lung
[12] = test system: KM20L2 colon

Row | SMILES | TGI [1] [µM] | TGI [2] [µM] | TGI [3] [µM] | TGI [4] [µM] | TGI [5] [µM] | TGI [6] [µM] | TGI [7] [µM] | GI50 [1] [µM] | GI50 [8] [µM] | TGI [8] [µM] | GI50 [9] [µM] | TGI [9] [µM] | GI50 [4] [µM] | GI50 [10] [µM] | TGI [10] [µM] | GI50 [11] [µM] | TGI [11] [µM] | GI50 [5] [µM] | GI50 [7] [µM] | TGI [12] [µM]
1 | O=C1C=CC(=O)c2nc3c(cc21)CCC3 | 31.4 | 36 | 47.4 | 34.1 | > 100 | 42 | 32.7 | – | – | – | – | – | – | – | – | – | – | – | – | –
2 | CCCCCCCCCCn1cc[n+](C)c1 | 23.5 | – | – | 22.6 | 11.4 | – | 9.58 | 1.79 | 5.25 | 30.7 | 0.536 | 11.6 | 2.92 | 2.36 | 14 | 2.43 | 47 | 2.69 | 1.24 | –
3 | CC(=O)OCCOCNC(=S)N/N=C(\C)c1cnccn1 | – | > 100 | 67 | – | > 100 | > 100 | > 100 | – | – | – | – | > 100 | – | – | – | – | 79.7 | – | – | 81.3
4 | CN1CC[C@@H](NC(=O)Nc2ccc(C#N)cc2)C[C@@H]1c1nc2ccccc2[nH]1 | > 100 | – | – | > 100 | > 100 | – | > 100 | > 100 | > 100 | > 100 | > 100 | > 100 | 35.9 | > 100 | > 100 | > 100 | > 100 | > 73.2 | > 100 | –
5 | COC(=O)CC(c1ccccc1)C1(c2ccccc2)SCCS1 (configuration not stated) | > 290 | > 290 | > 290 | 187 | – | – | > 290 | – | – | – | – | > 290 | – | – | – | – | > 290 | – | – | > 290
6 | c1ccc(Sc2ncnc3ccccc23)cc1 | 32.3 | – | – | 27.5 | 35 | – | > 100 | 12.7 | 12 | 24.9 | 10.6 | 25.1 | 4.49 | 29.5 | > 100 | 13.4 | 56.2 | 12.1 | 27.6 | –
7 | O=S(=O)(c1ccccc1)c1cccc2c1NCCC2 | > 100 | – | – | > 100 | > 100 | – | > 100 | – | – | > 100 | – | > 100 | – | – | > 100 | – | > 100 | – | – | –
8 | CN(C)CCn1c2c3ccccc3ccc2c2oc(=O)c3ccccc3c21 | 25.9 | > 100 | – | 17.6 | 9.94 | 48.1 | 25.1 | – | – | – | – | 36.4 | – | – | – | – | – | – | – | 33.8
9 | Nc1n[nH]c2cc(F)c([C@@H]3Nc4ccc5[nH]ncc5c4[C@H]4C5CCC(C5)[C@@H]34)cc12 (some centres not stated) | 7.43 | – | – | 9.01 | 1.12 | – | > 50 | 0.132 | 0.205 | 8.75 | 0.237 | 49.4 | 0.24 | 0.173 | 11.6 | 0.192 | 3.38 | 0.0988 | 3.46 | –
10 | NC(=O)c1ccccc1NC(=O)C(=O)C(C(=O)c1ccc(Cl)c(Cl)c1)C1OC(=O)c2ccccc21 (configuration not stated) | > 100 | > 100 | > 100 | > 100 | 83.2 | > 100 | – | – | – | – | – | > 100 | – | – | – | – | 56.3 | – | – | > 100
11 | Cc1cc2c(C)[nH]nc2c(C(=O)O)c1C | > 100 | > 100 | > 100 | – | > 100 | > 100 | – | – | – | – | – | > 100 | – | – | – | – | – | – | – | > 100
12 | COC[C@H]1Cn2cc(-c3nc(Nc4ccnn4C)ncc3C)nc2C(=O)N1Cc1ccc(F)c(F)c1 | > 100 | – | – | > 26.4 | > 100 | – | > 100 | 0.795 | 22.7 | > 100 | 0.255 | > 100 | 0.21 | 18.5 | > 100 | 25.8 | > 100 | 9.59 | 5.5 | –
13 | COc1ccc2nc3cc(Cl)ccc3c(NCCNCC(C)O)c2c1 (configuration not stated) | 4.54 | – | – | 6.68 | 8.71 | – | 8.28 | 1.57 | 2.12 | 8.57 | 2.6 | 10.7 | 2.6 | 4.47 | 21.3 | 2.3 | 6.04 | 1.9 | 2.85 | –
14 | COc1ccc2nc(NC(=O)CSc3nnc4n3S(=O)(=O)c3ccccc3N4c3ccccc3)sc2c1 | > 100 | – | – | > 100 | > 100 | – | > 100 | > 100 | > 100 | > 100 | > 100 | > 100 | 42.7 | > 100 | > 100 | > 100 | > 100 | 15.9 | > 100 | –
15 | O=C(O)c1ccc2c(c1C(=O)O)C(=O)OC2(c1ccc(O)cc1)c1ccc(O)cc1 | > 100 | – | – | > 100 | > 100 | – | > 100 | – | – | > 100 | – | > 100 | – | – | > 100 | – | > 100 | – | – | –
16 | O=C(CCCSc1nc(-c2ccccc2)cc(-c2ccccc2)n1)NO | 6.46 | – | – | 6.13 | 9.55 | – | 19.1 | 0.516 | 1.83 | 11.4 | 2.93 | 14.5 | 1.58 | 2.32 | 27 | 1.19 | 9.28 | 1.68 | 0.669 | –
17 | Nc1n[nH]c2cccc(C#Cc3cccc(C(=O)Nc4ccc(CN5CCOCC5)c(C(F)(F)F)c4)c3)c12 | 11.4 | – | – | 4.29 | 12.8 | – | 12.9 | 3.2 | 3.93 | 13.3 | 3.42 | 19 | 1.12 | 2.19 | 8.23 | 1.14 | 7.81 | 3.21 | 4.22 | –
